Calls of active or inactive are those of the source. The rule behind the calls is not given here.
Columns and labels:
Vitamin D3 receptor [1] = target: T1, Vitamin D3 receptor (Homo sapiens, UniProt P11473); test: Displacement of [3H]-1,25(OH)2D3 from recombinant human VDR ligand binding domain
T1 sequence (P11473 whole entry): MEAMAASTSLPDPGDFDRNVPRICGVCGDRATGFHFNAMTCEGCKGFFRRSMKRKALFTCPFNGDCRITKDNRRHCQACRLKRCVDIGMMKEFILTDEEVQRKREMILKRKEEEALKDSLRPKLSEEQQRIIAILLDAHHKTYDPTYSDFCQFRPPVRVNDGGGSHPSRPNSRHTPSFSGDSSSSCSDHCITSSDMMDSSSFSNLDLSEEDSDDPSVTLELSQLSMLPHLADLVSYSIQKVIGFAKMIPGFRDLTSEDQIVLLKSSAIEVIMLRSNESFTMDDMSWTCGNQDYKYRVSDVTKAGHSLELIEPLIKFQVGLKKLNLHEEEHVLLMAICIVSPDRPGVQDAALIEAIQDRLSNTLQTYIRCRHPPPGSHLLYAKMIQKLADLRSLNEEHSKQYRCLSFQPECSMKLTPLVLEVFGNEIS

[2] = target: T2, Vitamin D3 receptor (Homo sapiens) (UniProt P11473); test: Displacement of [3H]-1,25(OH)2D3 from recombinant human VDR ligand binding domain relative to 1,25(OH)2D3
T2 sequence (whole entry): T1 sequence (P11473 whole entry)

[3] = target: T2, Vitamin D3 receptor (Homo sapiens); test: (§1) Agonist activity at VDR (unknown origin) expressed in HEK293 cells cotransfected with RXRalpha assessed as RXRalpha recruitment by two-hybrid assay; assay type: cell-based
Vitamin D3 receptor [4] = target: T1, Vitamin D3 receptor; test: Agonist activity at VDR in human HEK293 cells assessed as transcriptional activity after 16 to 24 hrs by luciferase reporter gene assay; assay type: cell-based
[5] = Drug uptake in human MG63 cells at 1 uM after 5 mins by HPLC analysis in presence of 10% FBS; assay type: ADME, cell-based; settings: mg-63, 5 min
[6] = Metabolic stability in human MG63 assessed as compound metabolized at 1 uM after 24 hrs by HPLC analysis; assay type: ADME, MG-63; settings: MG63 cells, read-out: Drug metabolism
[7] = target: T2, Vitamin D3 receptor (Homo sapiens); test: Partial agonist activity at VDR in human HEK293 cells assessed as transcriptional activity after 16 to 24 hrs by luciferase reporter gene assay relative to 1,25(OH)2D3; assay type: cell-based
Vitamin D3 receptor [8] = target: T1, Vitamin D3 receptor; test: as §1; assay type: cell-based
Vitamin D3 receptor [9] = target: T1, Vitamin D3 receptor; test: Agonist activity at VDR (unknown origin) expressed in HEK293 cells cotransfected with NCoR assessed as decrease in NCoR recruitment by two-hybrid assay; assay type: cell-based
[10] = Drug uptake in human MG63 cells at 1 uM after 10 mins by HPLC analysis in presence of 10% FBS; assay type: ADME, cell-based; settings: mg-63, 10 min
Vitamin D3 receptor [11] = target: T1, Vitamin D3 receptor; test: Agonist activity at VDR (unknown origin) expressed in HEK293 cells cotransfected with SRC1 assessed as SRC1 recruitment by two-hybrid assay; assay type: cell-based

Compound	IC50 (Vitamin D3 receptor [1]) [nM]	Activity [2] [%]	Activity [3]	EC50 (Vitamin D3 receptor [4]) [nM]	Drug uptake [5] [%]	metabolised at 24 h, 1 µM [6] [%]	Efficacy [7] [%]	EC50 (Vitamin D3 receptor [8]) [nM]	IC50 (Vitamin D3 receptor [9]) [nM]	Drug uptake [10] [%]	EC50 (Vitamin D3 receptor [11]) [nM]
C=C1[C@H](O)CC(=C/C=C2\CCC[C@]3(C)[C@@H](C#CC#C[C@@H](O)CC45CC6CC(CC(C6)C4)C5)CC[C@@H]23)C[C@H]1O	35	1	Active	20							
C=C1[C@H](O)CC(=C/C=C2\CCC[C@]3(C)[C@@H](C#CC#C[C@@H](O)C45CC6CC(CC(C6)C4)C5)CC[C@@H]23)C[C@H]1O	5	7		1.5	5.9	8	86	0.7	0.09	7.7	4.5
C=C1/C(=C\C=C2/CCC[C@]3(C)[C@@H]([C@H](C)CCCC(C)(C)O)CC[C@@H]23)C[C@@H](O)C[C@@H]1O [CALCITRIOL]					2.5	25				2.7	
C=C1[C@H](O)CC(=C/C=C2\CCC[C@]3(C)[C@@H](C#CC#C[C@H](O)C45CC6CC(CC(C6)C4)C5)CC[C@@H]23)C[C@H]1O	12.5	3		7			41				
C=C1[C@H](O)CC(=C/C=C2\CCC[C@]3(C)[C@@H](C#CC#C[C@H](O)CC45CC6CC(CC(C6)C4)C5)CC[C@@H]23)C[C@H]1O	35	1	Active	30			59				

— ChEMBL document CHEMBL3745604, “Synthesis, Biological Activities, and X-ray Crystal Structural Analysis of 25-Hydroxy-25(or 26)-adamantyl-17-[20(22),23-diynyl]-21-norvitamin D Compounds” (J Med Chem, 2015)
